From ChEMBL document CHEMBL1155965, “Addressing the malaria drug resistance challenge using flow cytometry to discover new antimalarials” (Bioorg Med Chem Lett, 2009)

Key:
Plasmodium falciparum [1] = assay: Antimalarial activity against Plasmodium falciparum W2mef at 10 uM after 48 hrs by hoechst 33342-thiazole orange stain based flow cytometry assay; type: functional
Plasmodium falciparum [2] = assay: Antimalarial activity against Plasmodium falciparum W2mef assessed as DNA positive erythrocytes by hoechst 33342-thiazole orange stain based flow cytometry assay; type: functional, organism-based
Plasmodium falciparum [3] = assay: Antimalarial activity against Plasmodium falciparum W2mef schizont form by hoechst 33342-thiazole orange stain based flow cytometry assay; type: functional, organism-based
Plasmodium falciparum [4] = assay: Antimalarial activity against Plasmodium falciparum W2mef trophozoite form by hoechst 33342-thiazole orange stain based flow cytometry assay; type: functional, organism-based
Plasmodium falciparum [5] = assay: Antimalarial activity against Plasmodium falciparum W2mef ring form by hoechst 33342-thiazole orange stain based flow cytometry assay; type: functional, organism-based
Plasmodium falciparum [6] = assay: microbe, parasite or virus in culture; conditions: W2mef
Description: Antimalarial activity against Plasmodium falciparum W2mef by hypoxanthine uptake assay

[7] = Cytotoxicity against human erythrocytes assessed as change in cell shape by flow cytometry; type: cell-based; conditions: erythrocyte
[8] = Cytotoxicity against human erythrocytes assessed as change in internal complexity by flow cytometry; type: cell-based; conditions: erythrocyte
[9] = Cytotoxicity against human erythrocytes assessed as intact cells by propidium iodide stain based flow cytometry; type: cell-based, Erythrocyte; conditions: read-out: Activity

SMILES: N#Cc1ccc(Nc2nc(O)cc(O)n2)cc1
- inhibition at 10 µM (Plasmodium falciparum [1]): 1.46%

SMILES: COc1cc2ncn(-c3sc(C(N)=O)cc3OCc3ccccc3C(F)(F)F)c2cc1OC
- inhibition at 10 µM (Plasmodium falciparum [1]): 24.6%

SMILES: O=C(Cc1ccc(O)cc1)N1CCc2ccccc2C1
- inhibition at 10 µM (Plasmodium falciparum [1]): 1.1%

SMILES: Cn1cnc(C[S+]([O-])Cc2ccc(I)cc2)c1 (centres undefined)
- inhibition at 10 µM (Plasmodium falciparum [1]): 6.31%

SMILES: CCN(CC)C(=O)[C@@]1(c2ccccc2)C[C@H]1CNC(=O)O[C@@H]1O[C@H](C(=O)OC)[C@@H](O)[C@H](O)[C@H]1O
- inhibition at 10 µM (Plasmodium falciparum [1]): 3.16%

SMILES: Cc1cc(/C=C/C#N)cc(C)c1Nc1ccnc(Nc2ccc(C#N)cc2)n1 [RILPIVIRINE]
- IC50 (Plasmodium falciparum [2]): 1100 nM
- IC50 (Plasmodium falciparum [3]): 1210 nM
- inhibition at 10 µM (Plasmodium falciparum [1]): 49.8%
- IC50 (Plasmodium falciparum [4]): 2000 nM
- IC50 (Plasmodium falciparum [5]): 1200 nM

SMILES: Cn1cncc1CSCc1ccc(I)cc1
- inhibition at 10 µM (Plasmodium falciparum [1]): 41.9%

SMILES: Clc1ccc(C2(c3ccc4noc(-c5cccc(Cl)c5)c4c3)OCCO2)cc1
- inhibition at 10 µM (Plasmodium falciparum [1]): 54.5%

SMILES: Cc1[nH]c(/C=C2\C(=O)Nc3ccc(S(=O)(=O)N(C)c4cccc(Cl)c4)cc32)c(C)c1C(=O)N1CCN(C)CC1
- IC50 (Plasmodium falciparum [2]): 320 nM
- IC50 (Plasmodium falciparum [3]): 317 nM
- inhibition at 10 µM (Plasmodium falciparum [1]): 85.1%
- IC50 (Plasmodium falciparum [4]): 620 nM
- IC50 (Plasmodium falciparum [5]): 228 nM

SMILES: COC(=O)c1cn2nc[nH]c(=O)c2c1C
- inhibition at 10 µM (Plasmodium falciparum [1]): 9.62%

SMILES: Oc1ccc(C(O)C2CCc3ccccc3C2)cc1 (centres undefined)
- inhibition at 10 µM (Plasmodium falciparum [1]): 14.6%

SMILES: OC(c1cc(C(F)(F)F)nc2c(C(F)(F)F)cccc12)C1CCCCN1 (centres undefined) [MEFLOQUINE]
- IC50 (Plasmodium falciparum [3]): 44 nM
- IC50 (Plasmodium falciparum [4]): 74 nM
- IC50 (Plasmodium falciparum [6]): 142 nM
- IC50 (Plasmodium falciparum [5]): 147 nM

SMILES: Cc1cc(I)ccc1Nc1c(C(=O)N2CCNCC2)cc2nc[nH]c2c1F
- inhibition at 10 µM (Plasmodium falciparum [1]): 0.25%

SMILES: Cn1cnc(CSCc2ccccc2)c1
- inhibition at 10 µM (Plasmodium falciparum [1]): 42.1%

SMILES: Cc1cc(C#N)cc(C)c1Oc1nc(Nc2ccc(C#N)cc2)nc(N)c1Br [ETRAVIRINE]
- Activity [7]: Non-toxic
- Activity [8]: Non-toxic
- IC50 (Plasmodium falciparum [2]): 506 nM
- viability [9]: > 98.5%
- IC50 (Plasmodium falciparum [3]): 716 nM
- inhibition at 10 µM (Plasmodium falciparum [1]): 91.7%
- IC50 (Plasmodium falciparum [4]): 726 nM
- IC50 (Plasmodium falciparum [5]): 409 nM

SMILES: Cc1ccc(-c2nc3c(Br)cc4c(c3[nH]2)C(=O)NC(=O)C4(C)C)cc1[N+](=O)[O-]
- inhibition at 10 µM (Plasmodium falciparum [1]): 11.2%

SMILES: O=C(c1ccc(Cl)cc1)c1ccc2[nH]c(=O)cc(-c3cccc(Cl)c3)c2c1
- inhibition at 10 µM (Plasmodium falciparum [1]): 36.1%

SMILES: Oc1c(F)cc(CN2CCc3ccccc3C2)cc1F
- inhibition at 10 µM (Plasmodium falciparum [1]): 8.47%

SMILES: Cn1cc(-c2[nH]c3cc(N)cc4c3c2C=NNC4=O)cn1
- inhibition at 10 µM (Plasmodium falciparum [1]): 9.17%

SMILES: CC(C)C1=NN=CC1C1CC2CCC(C1)N2 (centres undefined)
- inhibition at 10 µM (Plasmodium falciparum [1]): 0%

SMILES: Cc1cc(O)cc(C)c1CN1CCc2ccccc2C1
- inhibition at 10 µM (Plasmodium falciparum [1]): 6.76%

SMILES: Cn1cnc(CSCc2ccc(I)cc2)c1
- IC50 (Plasmodium falciparum [2]): 3770 nM
- IC50 (Plasmodium falciparum [3]): 2000 nM
- inhibition at 10 µM (Plasmodium falciparum [1]): 74.9%
- IC50 (Plasmodium falciparum [4]): 16600 nM
- IC50 (Plasmodium falciparum [5]): 1080 nM

SMILES: O=C(NCCc1c[nH]cn1)/C(Cc1ccccc1)=N\O
- inhibition at 10 µM (Plasmodium falciparum [1]): 2.61%

SMILES: Fc1cccc(-c2nc3ccncc3[nH]2)c1F
- inhibition at 10 µM (Plasmodium falciparum [1]): 14.4%

SMILES: O=S(=O)(c1ccccc1)C(CCCn1ccnc1)c1ccc(I)cc1 (centres undefined)
- inhibition at 10 µM (Plasmodium falciparum [1]): 3.46%

SMILES: CNC(=O)c1cc(Oc2ccc(NC(=O)Nc3ccc(Cl)c(C(F)(F)F)c3)cc2)ccn1 [SORAFENIB]
- IC50 (Plasmodium falciparum [2]): 384 nM
- IC50 (Plasmodium falciparum [3]): 376 nM
- inhibition at 10 µM (Plasmodium falciparum [1]): 87.5%
- IC50 (Plasmodium falciparum [4]): 509 nM
- IC50 (Plasmodium falciparum [5]): 328 nM

SMILES: Ic1ccc(CSCc2c[nH]cn2)cc1
- inhibition at 10 µM (Plasmodium falciparum [1]): 37.1%

SMILES: C[C@@H]1CC[C@H]2[C@@H](C)C(=O)O[C@@H]3O[C@@]4(C)CC[C@@H]1[C@]32OO4 [ARTEMISININ]
- IC50 (Plasmodium falciparum [2]): 11 nM
- IC50 (Plasmodium falciparum [3]): 8 nM
- IC50 (Plasmodium falciparum [4]): 7 nM
- IC50 (Plasmodium falciparum [6]): 12 nM
- IC50 (Plasmodium falciparum [5]): 20 nM

SMILES: C/C(O)=C(\C#N)C(=O)Nc1ccc(C(F)(F)F)cc1 [TERIFLUNOMIDE]
- inhibition at 10 µM (Plasmodium falciparum [1]): 4.96%
